Measured values taken from ChEMBL document CHEMBL4219112, “Rational drug design and synthesis of new α-Santonin derivatives as potential COX-2 inhibitors” (Bioorg Med Chem Lett, 2018).
The source made the active and inactive calls. The rule behind the calls is not given here.

Experiments:
[1] = molecular target: T1, Prostaglandin G/H synthase 2 (Mus musculus) (UniProt Q05769); assay: Inhibition of COX-2 in PH-PDT-treated mouse RIF1 cells assessed as suppression of PGE2 production at 400 uM after 24 hrs by spectrophotometric analysis
T1 sequence (whole entry): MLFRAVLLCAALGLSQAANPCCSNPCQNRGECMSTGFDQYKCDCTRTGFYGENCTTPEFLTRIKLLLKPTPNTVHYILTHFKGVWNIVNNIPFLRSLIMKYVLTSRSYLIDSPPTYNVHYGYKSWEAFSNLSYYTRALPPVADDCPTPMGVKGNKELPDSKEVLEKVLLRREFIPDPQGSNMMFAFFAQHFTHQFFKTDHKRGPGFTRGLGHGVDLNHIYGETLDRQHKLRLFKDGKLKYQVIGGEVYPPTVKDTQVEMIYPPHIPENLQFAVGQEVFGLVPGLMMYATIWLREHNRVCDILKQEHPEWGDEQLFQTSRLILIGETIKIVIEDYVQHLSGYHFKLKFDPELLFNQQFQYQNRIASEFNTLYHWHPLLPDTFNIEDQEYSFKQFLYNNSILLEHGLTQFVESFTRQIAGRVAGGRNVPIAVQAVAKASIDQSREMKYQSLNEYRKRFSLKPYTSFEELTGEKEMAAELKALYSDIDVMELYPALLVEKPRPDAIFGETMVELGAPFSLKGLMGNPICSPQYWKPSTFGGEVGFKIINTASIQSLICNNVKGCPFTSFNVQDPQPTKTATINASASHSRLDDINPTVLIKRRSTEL

[2] = molecular target: T1, Prostaglandin G/H synthase 2 (Mus musculus); assay: Inhibition of COX-2 in PH-PDT-treated mouse RIF1 cells assessed as suppression of PGE2 production at 200 uM after 24 hrs by spectrophotometric analysis
RIF-1 [3] = assay: Inhibition of COX2 expression levels in PH-PDT-treated mouse RIF1 cells at 800 uM after 24 hrs by Western blot analysis; assay type: functional, cell-based
RIF-1 [4] = assay: Inhibition of COX2 expression levels in PH-PDT-treated mouse RIF1 cells at 400 uM after 24 hrs by Western blot analysis; assay type: functional, cell-based
[5] = molecular target: T1, Prostaglandin G/H synthase 2 (Mus musculus); assay: Inhibition of COX-2 in PH-PDT-treated mouse RIF1 cells assessed as suppression of PGE2 production at 800 uM after 24 hrs by spectrophotometric analysis
RIF-1 [6] = assay: Cytotoxicity against mouse RIF1 cells at 100 to 800 uM after 24 hrs; assay type: cell-based; conditions: rif-1, 24 h
RIF-1 [7] = assay: Inhibition of COX2 expression levels in PH-PDT-treated mouse RIF1 cells at 500 uM after 24 hrs by Western blot analysis; assay type: functional, cell-based
RIF-1 [8] = assay: Inhibition of COX2 expression levels in PH-PDT-treated mouse RIF1 cells at 250 uM after 24 hrs by Western blot analysis; assay type: functional, cell-based
[9] = molecular target: T1, Prostaglandin G/H synthase 2 (Mus musculus); assay: Inhibition of COX-2 in PH-PDT-treated mouse RIF1 cells assessed as suppression of PGE2 production at 250 uM after 24 hrs by spectrophotometric analysis
RIF-1 [10] = assay: Cytotoxicity against mouse RIF1 cells at 250 to 750 uM after 24 hrs; assay type: cell-based; conditions: rif-1, 24 h
RIF-1 [11] = assay: Cytotoxicity against mouse RIF1 cells at 50 to 800 uM after 24 hrs; assay type: cell-based; conditions: rif-1, 24 h
[12] = molecular target: T1, Prostaglandin G/H synthase 2 (Mus musculus); assay: Inhibition of COX-2 in PH-PDT-treated mouse RIF1 cells assessed as suppression of PGE2 production at 500 uM after 24 hrs by spectrophotometric analysis
RIF-1 [13] = assay: Inhibition of COX2 expression levels in PH-PDT-treated mouse RIF1 cells at 62.5 uM after 24 hrs by Western blot analysis; assay type: functional, cell-based
RIF-1 [14] = assay: Inhibition of COX2 expression levels in PH-PDT-treated mouse RIF1 cells at 750 uM after 24 hrs by Western blot analysis; assay type: functional, cell-based
[15] = molecular target: T1, Prostaglandin G/H synthase 2 (Mus musculus); assay: Inhibition of COX-2 in PH-PDT-treated mouse RIF1 cells assessed as suppression of PGE2 production at 750 uM after 24 hrs by spectrophotometric analysis
RIF-1 [16] = assay: Cytotoxicity against mouse RIF1 cells at 62.5 to 750 uM after 24 hrs; assay type: cell-based; conditions: rif-1, 24 h
RIF-1 [17] = assay: Cytotoxicity against mouse RIF1 cells at 500 to 1000 uM after 24 hrs; assay type: cell-based; conditions: rif-1, 24 h

With `CC(=O)Oc1cc(C)c2c(c1C)[C@@H]1OC(=O)[C@@H](C)[C@@H]1CC2` the inhibition [1] was “Active”, the inhibition [2] was “Active” and the inhibition (RIF-1 [3]) was “Active”. The inhibition (RIF-1 [4]) was “inactive”, the inhibition [5] was “inactive” and the Activity (RIF-1 [6]) was “Non-Toxic”.
In the case of `Cc1cc(O)c(C)c2c1CC[C@H]1[C@H](C)C(=O)O[C@@H]21`, the inhibition (RIF-1 [7]) is reported as “Active”, the inhibition (RIF-1 [8]) is reported as “inactive” and the inhibition [9] is reported as “Active”. For the same molecule, the Activity (RIF-1 [10]) was “Non-Toxic”.
`Cc1cc(OCc2ccc(C(F)(F)F)cc2)c(C)c2c1CC[C@H]1[C@H](C)C(=O)O[C@@H]21` was tested, and the inhibition (RIF-1 [4]) was “Active” and the Activity (RIF-1 [11]) was “Non-Toxic”.
With `Cc1cc(OCc2ccccc2)c(C)c2c1CC[C@H]1[C@H](C)C(=O)O[C@@H]21` the inhibition (RIF-1 [7]) was “Active”, the inhibition [12] was “Active” and the inhibition (RIF-1 [13]) was “Active”. The inhibition (RIF-1 [14]) was “Active”, the inhibition [15] was “Active” and the Activity (RIF-1 [16]) was “Toxic”.
`CC1=C2[C@@H]3OC(=O)[C@@H](C)[C@@H]3CC[C@@]2(C)C=CC1=O` was tested, and the inhibition (RIF-1 [7]) was “Active”, the inhibition [12] was “Active” and the Activity (RIF-1 [17]) was “Non-Toxic”.
